Assay: Decapitated locust model: hemolymph drug concentration by LCMS after administration via esophageal catheter
Conditions: male, Locusta migratoria (locust), in vivo
Method: The insects may be obtained from local suppliers or bred in house. The grasshoppers were reared under crowded conditions at 28° C. and a 12:12 dark:light photocycle and fed fresh grass and bran. Before experiments the grasshoppers were fed ecologically cultivated wheat for two weeks. Animals used are adult males (in some experiments females) between two to four weeks after adult emergence. After decapitation, test compounds are administrated via a catheter or a probe inserted into the midgut of the animal. At various times after administration hemolymph samples are taken for quantitative determination of drug concentration in the hemolymph. The samples are snap-frozen and stored until analyses. Drug concentration is analysed by HPLC, LC/MSMS or other methods.
The head of male locusts (Locusta migratoria), which have been starving for 12 hours, was cut off and a plastic catheter was inserted under microscope into the esophagus. 20 μl of quinidine (0.1 mg/ml) was administered via the catheter by using a Hamilton syringe.
(§1) 10 and 30 minutes after administration (10 μl) hemolymph was collected with a calibrated capillary tube by puncturing the ventral membrane anterior to the thorax and immediately blown into a tube containing 40 μl aqua dest and 100 μl of acetonitrile. Each sample was centrifuged for 5 minutes (10 000g at 4° C.). 100 μl of the supernatants were transferred to new test tubes for LCMS analysis.
as §1, with “The head of male locusts (Locusta migratoria), which have been starving for 12 hours, was cut off and a plastic catheter was inserted under microscope into the esophagus. 20 μl of quinidine (1 mg/ml) was administered via the catheter by using a Hamilton syringe. 10 and” for “10 and”
The head of male locusts (Locusta migratoria), which have been starving for 12 hours, was cut off and a plastic catheter was inserted under microscope into the esophagus. 20 μl of propranolol (0.1 mg/ml) was administered via the catheter by using a Hamilton syringe.
as §1, with “analysis. […]” for “analysis.”

In the case of Cn1c(=O)c2c(ncn2C)n(C)c1=O [caffeine], the concentration at 10 min (2 µg per animal) is reported as 177 ng/mL, the concentration at 30 min (2 µg per animal) is reported as 276 ng/mL and the concentration at 10 min (20 µg per animal) is reported as 1150 ng/mL. The concentration at 30 min (20 µg per animal) was 1660 ng/mL.
